31 compounds from US9434711B2 (Janssen Pharmaceutica, NV, priority 2007, dated 2016) can be followed below.

Read-outs that look alike come from different tables or passages of the source.

For this assay, the target named is canine TRPM8 (Canis lupus familiaris, UniProt Q1A7N1). Briefly: In Vitro Canine TRPM8 Functional Assay (Ca2+ fluorescence, icilin activation). It is filed as cell-based. To be noted: for IC50: read-out: IC50; for inhibition at 0.5 µM: compound at 0.5 μM, read-out: % Inh @ 0.5. The gist of the method: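 HEK293 cells stably expressing canine TRPM8 loaded with Calcium 3 dye; compound added and Ca2+ fluorescence monitored 5 min before icilin at a final level giving ~80% maximal response, read on FLIPR or FDSS. EC50 or IC50 from eight-point dose-response, quadruplicate wells per point.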

Setting [1] is: HEK293 cells stably expressing canine TRPM8, icilin activation, eight-point dose-response.
[2] abbreviates: compound at 0.2 μM, canine TRPM8, icilin activation, read-out: % Inh @ 0.2.
The mark [3] stands for this setting: canine TRPM8, icilin activation.
Setting [4] is: HEK293 cells stably expressing canine TRPM8, icilin activation, average of two or more determinations.
Setting [5] is: 0.2 μM compound, HEK293 cells stably expressing canine TRPM8, icilin activation, read-out: % Inh @ 0.2.

canine TRPM8, sequence (Q1A7N1 1-1104): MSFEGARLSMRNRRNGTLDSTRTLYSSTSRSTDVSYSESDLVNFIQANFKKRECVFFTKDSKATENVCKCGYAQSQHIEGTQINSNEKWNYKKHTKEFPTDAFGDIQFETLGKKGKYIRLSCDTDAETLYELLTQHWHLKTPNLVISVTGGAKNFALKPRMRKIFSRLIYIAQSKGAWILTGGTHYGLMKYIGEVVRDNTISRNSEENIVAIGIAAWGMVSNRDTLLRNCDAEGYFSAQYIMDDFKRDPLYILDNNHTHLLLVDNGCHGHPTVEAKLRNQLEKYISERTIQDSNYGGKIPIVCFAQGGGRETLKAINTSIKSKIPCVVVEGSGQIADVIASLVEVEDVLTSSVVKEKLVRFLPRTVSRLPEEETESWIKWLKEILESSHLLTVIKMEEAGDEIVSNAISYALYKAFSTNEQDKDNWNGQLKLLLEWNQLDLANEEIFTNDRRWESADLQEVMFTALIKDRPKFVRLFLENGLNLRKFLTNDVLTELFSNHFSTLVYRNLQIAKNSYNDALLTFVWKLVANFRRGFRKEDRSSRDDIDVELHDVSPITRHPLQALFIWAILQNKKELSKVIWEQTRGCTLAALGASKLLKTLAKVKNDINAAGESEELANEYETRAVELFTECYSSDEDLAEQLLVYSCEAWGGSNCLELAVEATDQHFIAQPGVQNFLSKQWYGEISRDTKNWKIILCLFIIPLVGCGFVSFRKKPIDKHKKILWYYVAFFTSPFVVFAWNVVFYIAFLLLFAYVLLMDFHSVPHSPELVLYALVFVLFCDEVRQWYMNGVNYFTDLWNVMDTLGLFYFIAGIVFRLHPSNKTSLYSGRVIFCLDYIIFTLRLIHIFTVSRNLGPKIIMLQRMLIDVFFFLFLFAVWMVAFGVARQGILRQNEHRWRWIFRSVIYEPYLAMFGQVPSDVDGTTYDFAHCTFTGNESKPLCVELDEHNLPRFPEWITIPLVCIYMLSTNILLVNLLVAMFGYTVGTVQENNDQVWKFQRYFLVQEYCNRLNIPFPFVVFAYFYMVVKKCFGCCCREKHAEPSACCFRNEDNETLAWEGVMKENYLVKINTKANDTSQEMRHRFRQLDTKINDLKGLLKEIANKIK

Regarding `COc1ccc(S(=O)(=O)N(Cc2ccc(F)c(C(F)(F)F)c2)c2sc3ccccc3c2C)cn1` [Compound 359], the concentration for half-maximal inhibition (IC50) – broadly, the midpoint of a concentration-inhibition curve – under setting [1] is 17 nM. Moreover, the inhibition at 0.2 µM under setting [2] is 93%.
Consider `O=C(O)c1ccc(S(=O)(=O)N(CC2CCCC2)c2sc3ccccc3c2Br)cc1` [Compound 438, N-(3-Bromo-benzo[b]thiophen-2-yl)-N-(cyclopentylmethyl)-4-carboxy-benzenesulfonamide], for which, under setting [1], the IC50 stood at 2 nM. For the same compound, the inhibition at 0.2 µM under setting [2] amounted to 90%.
With `CC(=O)C1=C(N(Cc2ccc(F)c(C(F)(F)F)c2)S(=O)(=O)c2ccccc2)S(=O)(=O)c2ccccc21` [Compound 460, N-(3-Acetyl-1,1-dioxo-1H-benzo[b]thiophen-2-yl)-N-(4-fluoro-3-trifluoromethyl-benzyl)-benzenesulfonamide], under setting [1], the IC50 was found to be 8 nM. Also, the inhibition at 0.2 µM under setting [2] was 102%.
With `CS(=O)(=O)N(Cc1ccc(F)c(F)c1)c1cc2ccccc2s1` [Compound 34, N-Benzo[b]thiophen-2-yl-N-(3,4-difluoro-benzyl)-methanesulfonamide], the IC50 under setting [1] worked out at 184 nM. The inhibition at 0.5 µM under setting [3] amounted to 98%.
For `Cc1c(N(Cc2ccc(F)c(C(F)(F)F)c2)S(=O)(=O)c2cccnc2Cl)sc2ccccc12` [Compound 77, N-(4-Fluoro-3-trifluoromethyl-benzyl)-N-(3-methyl-benzo[b]thiophen-2-yl)-2-chloro-pyridine-3-sulfonamide], the IC50 under setting [1] worked out at 22 nM. Also, the inhibition at 0.2 µM under setting [2] amounted to 97%.
For `CCS(=O)(=O)N(CCOC(C)(C)C)c1sc2ccccc2c1C` [Compound 110, N-(2-tert-Butoxy-ethyl)-N-(3-methyl-benzo[b]thiophen-2-yl)-ethanesulfonamide], the IC50 under setting [1] came out at 7.2 nM. Moreover, the inhibition at 0.2 µM under setting [2] came to 97%.
Take `O=S(=O)(c1ccccc1)N(CCCF)c1sc2ccccc2c1CO` [Cpd 820]: under “0.2 μM compound, HEK293 cells stably expressing canine TRPM8, icilin activation”, the “% Inh @ 0.2 (μM)” value is 102%. For the same compound, the IC50 under setting [4] was determined as 28 nM.
Turning to `COc1cccc(S(=O)(=O)N(Cc2ccc(F)c(F)c2)c2sc3ccccc3c2C)c1` [Compound 25, N-(3,4-Difluoro-benzyl)-N-(3-methyl-benzo[b]thiophen-2-yl)-3-methoxy-benzenesulfonamide], under setting [1], the IC50 is 21 nM. Besides, under setting [3], the inhibition at 0.5 µM came to 99%.
As to `CCS(=O)(=O)N(Cc1ccc(F)c(C(F)(F)F)c1)c1sc2ccccc2c1-c1ccccc1F` [Compound 200, N-[3-(2-Fluoro-phenyl)-benzo[b]thiophen-2-yl]-N-(4-fluoro-3-trifluoromethyl-benzyl)-ethanesulfonamide], the inhibition at 0.2 µM under setting [2] worked out at 29%.
Regarding `Cc1c(N(Cc2ccc(OC(F)(F)F)cc2)S(=O)(=O)c2ccc(N3CCOCC3)cc2)sc2ccccc12` [Compound 800, N-(3-Methyl-benzo[b]thiophen-2-yl)-N-(4-trifluoromethoxy-benzyl)-4-morpholino-benzenesulfonamide], the inhibition at 0.2 µM under setting [5] was 102%. For the same compound, under setting [4], the 50% inhibitory concentration (IC50) amounted to 6.8 nM.
On to `Cc1c(N(CCCCC(F)(F)F)S(=O)(=O)c2ccc(N3CCOCC3)nc2)sc2ccccc12` [Compound 788], for which the inhibition at 0.2 µM under setting [2] was 100%.
Regarding `Cc1c(N(Cc2ccc(F)c(C(F)(F)F)c2)S(=O)(=O)c2ccc(C(=O)NS(C)(=O)=O)cc2)sc2ccccc12` [Compound 623, N-(3-Methyl-benzo[b]thiophen-2-yl)-N-(4-fluoro-3-trifluoromethyl-benzyl)-4-methanesulfonylaminocarbonyl-benzenesulfonamide], under setting [1], the half-inhibitory concentration (IC50) stood at 7 nM. Under setting [2], the inhibition at 0.2 µM came out at 101%.
For `CCCCN(c1sc2ccccc2c1C)S(=O)(=O)c1ccc(-c2noc(=O)[nH]2)cc1` [Compound 541, N-(3-Methyl-benzo[b]thiophen-2-yl)-N-(butyl)-4-(5-oxo-4,5-dihydro-[1,2,4]oxadiazol-3-yl)-benzenesulfonamide], the IC50 under setting [1] came to 10.8 nM. For the same compound, the inhibition at 0.2 µM under setting [2] came to 105%.
In the case of `COP(=O)(CCN(c1sc2ccccc2c1Br)S(=O)(=O)c1ccccc1)OC` [Compound 254, N-(3-Bromo-benzo[b]thiophen-2-yl)-N-(dimethoxyphosphinoyl-ethyl)-benzenesulfonamide], under setting [1], the concentration for half-maximal inhibition (IC50) worked out at 125 nM. The inhibition at 0.2 µM (read-out: % Inh @ 0.2 (μM)) was 58%.
For the compound `Nc1ccc(S(=O)(=O)N(CCC(F)(F)F)c2sc3ccccc3c2Br)cc1Br` [Compound 588, 4-Amino-3-bromo-N-(3-bromo-benzo[b]thiophen-2-yl)-N-(3,3,3-trifluoro-propyl)-benzenesulfonamide], the IC50 under setting [1] turned out to be 12.1 nM. The inhibition at 0.2 µM under setting [2] came to 101%.
Regarding `CCS(=O)(=O)N(Cc1cc(F)c(F)c(OC)c1F)c1sc2ccccc2c1C(C)(C)O` [Compound 802, N-[3-(1-Hydroxy-1-methyl-ethyl)-benzo[b]thiophen-2-yl]-N-(2,4,5-trifluoro-3-methoxy-benzyl)-ethanesulfonamide], the inhibition at 0.2 µM under setting [5] came out at 101%. For the same compound, under setting [4], the IC50 is 8 nM.
For the compound `N#Cc1cccc(S(=O)(=O)N(CCC2CC2)c2cc3ccccc3s2)c1` [Compound 575, N-(Benzo[b]thiophen-2-yl)-N-(2-cyclopropyl-ethyl)-3-cyano-benzenesulfonamide], under setting [2], the inhibition at 0.2 µM came out at 15%.
For the compound `CS(=O)(=O)N(Cc1ccc(F)c(F)c1)c1sc2ccccc2c1C=O` [Compound 209, N-(3,4-Difluoro-benzyl)-N-(3-formyl-benzo[b]thiophen-2-yl)-methanesulfonamide], the IC50 under setting [1] was 32 nM. For the same compound, the inhibition at 0.2 µM under setting [2] was 98%.
Take `Cc1c(N(Cc2ccc(F)c(C(F)(F)F)c2)S(=O)(=O)C(F)(F)F)sc2ccccc12` [Compound 664, C,C,C-Trifluoro-N-(4-fluoro-3-trifluoromethyl-benzyl)-N-(3-methyl-benzo[b]thiophen-2-yl)-methanesulfonamide]: under setting [2], the inhibition at 0.2 µM is 53.1%.
Consider `CN(C)S(=O)(=O)N(CC1CC1)c1sc2ccccc2c1Br` [Compound 266, N-(3-Bromo-benzo[b]thiophen-2-yl)-N-(cyclopropylmethyl)-N′,N′-dimethylsulfamide], for which the IC50 under setting [1] was 39 nM. Further, under setting [2], the inhibition at 0.2 µM stood at 86%.
With `CCS(=O)(=O)N(Cc1ccnc(F)c1)c1sc2ccccc2c1C(C)(C)O` [Compound 836, N-(2-Fluoro-pyridin-4-ylmethyl)-N-[3-(1-hydroxy-1-methyl-ethyl)-benzo[b]thiophen-2-yl]-ethanesulfonamide], the inhibition at 0.2 µM under setting [5] turned out to be 96%. In addition, under setting [4], the IC50 stood at 24 nM.
For “N-(3-Cyclopentyl-benzo[b]thiophen-2-yl)-N-(4-fluoro-3-trifluoromethyl-benzyl)-4-carbomethoxy-benzenesulfonamide [Compound 501]”, the “% Inh @ 0.2 (μM)” value (compound at 0.2 μM, canine TRPM8, icilin activation) is 31%.
In the case of `O=S(=O)(c1ccccc1)N(C[C@@H](O)CO)c1sc2ccccc2c1Br` [Compound 235, (R)—N-(3-Bromo-benzo[b]thiophen-2-yl)-N-(2,3-dihydroxy-propyl)-benzenesulfonamide], under setting [3], the inhibition at 0.5 µM amounted to 51%.
Take `Cc1c(N(Cc2ccc(F)c(C(F)(F)F)c2)S(=O)(=O)c2cccnc2)sc2ccccc12` [Compound 39, N-(4-Fluoro-3-trifluoromethyl-benzyl)-N-(3-methyl-benzo[b]thiophen-2-yl)-pyridine-3-sulfonamide]: the IC50 under setting [1] is 3.9 nM. Also, the inhibition at 0.5 µM under setting [3] amounted to 101%.
For the compound `CC(O)c1c(N(Cc2ccc(F)c(F)c2)S(=O)(=O)c2ccccc2)sc2ccccc12` (stereo not drawn) [Compound 222, N-(3,4-Difluoro-benzyl)-N-[3-(1-hydroxy-ethyl)-benzo[b]thiophen-2-yl]-benzenesulfonamide], the IC50 under setting [1] is 1.7 nM. Moreover, under setting [2], the inhibition at 0.2 µM was 95%.
The like results for `Cc1c(N(Cc2c(F)c(F)c(F)c(F)c2F)S(=O)(=O)c2ccc(C(=O)O)cc2)sc2ccccc12` [Compound 493, N-(3-Methyl-benzo[b]thiophen-2-yl)-N-(2,3,4,5,6-pentafluoro-benzyl)-4-carboxy-benzenesulfonamide] were, in that order, 0.8 nM and 101%.
For `O=S(=O)(c1cccnc1Cl)N(Cc1ccc(F)c(C(F)(F)F)c1)c1cc2ccccc2s1` [Compound 310, N-(Benzo[b]thiophen-2-yl)-N-(4-fluoro-3-trifluoromethyl-benzyl)-2-chloro-pyridin-3-ylsulfonamide], under setting [2], the inhibition at 0.2 µM was determined as 69%.
For `COC(=O)c1cccc(CN(c2sc3ccccc3c2Br)S(=O)(=O)c2cccnc2)c1` [Compound 405, N-(3-Bromo-benzo[b]thiophen-2-yl)-N-(3-carbomethoxy-benzyl)-pyridin-3-ylsulfonamide], the IC50 under setting [1] was found to be 36 nM. Moreover, under setting [2], the inhibition at 0.2 µM was found to be 95%.
Take `CCS(=O)(=O)N(Cc1ccnc(F)c1)c1sc2ccccc2c1C(C)=O` [Compound 848, N-(3-Acetyl-benzo[b]thiophen-2-yl)-N-(2-fluoro-pyridin-4-ylmethyl)-ethansulfonamide]: under setting [5], the inhibition at 0.2 µM was 68%.
On to `CCCCN(c1cc2ccccc2s1)S(=O)(=O)c1ccc(-c2noc(=O)[nH]2)cc1` [Compound 442, N-(Benzo[b]thiophen-2-yl)-N-(butyl)-4-(5-oxo-4,5-dihydro-[1,2,4]oxadiazol-3-yl)-benzenesulfonamide], for which, under setting [1], the IC50 came to 67 nM. In addition, under setting [2], the inhibition at 0.2 µM is 81%.
For `COC(=O)c1cccc(S(=O)(=O)N(Cc2ccc(F)c(C(F)(F)F)c2)c2sc3ccccc3c2Cl)c1` [Compound 195, N-(3-Chloro-benzo[b]thiophen-2-yl)-N-(4-fluoro-3-trifluoromethyl-benzyl)-3-carbomethoxy-benzenesulfonamide], the IC50 under setting [1] came to 47.3 nM. The inhibition at 0.2 µM under setting [2] was determined as 88%.
